Molecular target: T1, recombinant N-terminal GST-tagged human Rho kinase 2 (ROCK2, amino acids 1-552) (Homo sapiens, UniProt O75116)
T1 construct: ROCK2, amino acids 1-552; purchased Invitrogen Inc. PV3759
Assay: In vitro Rho kinase assay (luciferase-based ATP consumption), ROCK2
Format: biochemical
Details: recombinant GST-tagged human ROCK2, luciferase-based ATP consumption; read-out: ROCK2 IC50
Summary of the method: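 Luciferase-based luminescence of leftover ATP after 2 h at 30 °C, where inhibition raises signal, reports activity of GST-tagged ROCK2 (aa 1-552) at 0.82 μg/ml. Conditions: S6 peptide 100 μg/ml, […], pH 7.5 Tris buffer. Results given as percent of H-1152P control activity.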

T1 sequence (O75116 1-552): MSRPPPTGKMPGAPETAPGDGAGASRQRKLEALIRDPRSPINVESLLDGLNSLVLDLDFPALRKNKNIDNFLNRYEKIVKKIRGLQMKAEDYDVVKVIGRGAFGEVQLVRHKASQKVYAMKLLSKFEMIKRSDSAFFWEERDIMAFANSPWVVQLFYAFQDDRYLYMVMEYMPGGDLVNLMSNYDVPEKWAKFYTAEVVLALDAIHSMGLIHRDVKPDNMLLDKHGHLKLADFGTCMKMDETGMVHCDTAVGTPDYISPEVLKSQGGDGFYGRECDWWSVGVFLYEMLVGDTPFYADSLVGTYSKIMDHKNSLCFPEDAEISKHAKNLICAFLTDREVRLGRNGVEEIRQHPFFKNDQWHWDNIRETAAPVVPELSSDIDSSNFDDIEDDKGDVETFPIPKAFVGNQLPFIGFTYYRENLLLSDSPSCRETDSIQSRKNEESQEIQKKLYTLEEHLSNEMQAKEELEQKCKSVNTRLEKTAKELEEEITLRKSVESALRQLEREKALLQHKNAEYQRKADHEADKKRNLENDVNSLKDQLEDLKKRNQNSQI

Row | IC50 [µM] | Structure (SMILES)
1 | < 5 | Cc1c(-c2ccnc(N)n2)sc2ccc(C(=O)N(CCO)Cc3ccccc3)cc12 [Example 506, Cc1c(sc2ccc(cc12)C(═O)N(CCO)Cc3ccccc3)-c4ccnc(N)n4]
2 | < 5 | COc1cccc(CCNC(=O)c2ccc3sc(-c4ccnc(N)n4)c(C)c3c2)c1 [Example 421, COc1cccc(CCNC(═O)c2ccc3sc(c(C)c3c2)-c4ccnc(N)n4)c1]
3 | < 5 | Cc1c(-c2ccnc(N)n2)sc2ccc(C(=O)NC3CCN(Cc4ccccc4)CC3)cc12 [Example 452, Cc1c(sc2ccc(cc12)C(═O)NC3CCN(CC3)Cc4ccccc4)-c5ccnc(N)n5]
4 | < 5 | Cc1c(-c2ccnc(N)n2)sc2ccc(C(=O)N3CCSCC3)cc12 [Example 479, Cc1c(sc2ccc(cc12)C(═O)N3CCSCC3)-c4ccnc(N)n4]
5 | < 5 | Cc1c(-c2ccnc(N)n2)sc2ccc(C(=O)NCCC(C)C)cc12 [Example 350, CC(C)CCNC(═O)c1ccc2sc(c(C)c2c1)-c3ccnc(N)n3]
6 | < 5 | Cc1c(-c2ccnc(N)n2)sc2ccc(C(=O)NCc3cccc(C(F)(F)F)c3)cc12 [Example 445, Cc1c(sc2ccc(cc12)C(═O)NCc3cccc(c3)C(F)(F)F)-c4ccnc(N)n4]
7 | > 5 | Cc1c(-c2ccnc(N)n2)sc2ccc(C(=O)N3CCN(c4ccccn4)CC3)cc12 [Example 514, Cc1c(sc2ccc(cc12)C(═O)N3CCN(CC3)c4ccccn4)-c5ccnc(N)n5]
8 | < 5 | Cc1c(-c2ccnc(N)n2)sc2ccc(C(=O)NN3CCOCC3)cc12 [Example 361, Cc1c(sc2ccc(cc12)C(═O)NN3CCOCC3)-c4ccnc(N)n4]
9 | < 5 | Cc1c(-c2ccnc(N)n2)sc2ccc(C(=O)NCC3CCCCC3)cc12 [Example 369, Cc1c(sc2ccc(cc12)C(═O)NCC3CCCCC3)-c4ccnc(N)n4]
10 | < 5 | Cc1c(-c2ccnc(N)n2)sc2ccc(C(=O)NCc3ccco3)cc12 [Example 355, Cc1c(sc2ccc(cc12)C(═O)NCc3ccco3)-c4ccnc(N)n4]
11 | < 5 | Cc1c(-c2ccnc(N)n2)sc2ccc(C(=O)N3CCCC(CO)C3)cc12 (stereo not shown) [Example 486, Cc1c(sc2ccc(cc12)C(═O)N3CCCC(CO)C3)-c4ccnc(N)n4]
12 | < 5 | Cc1c(-c2ccnc(N)n2)sc2ccc(C(=O)NCCCN(C)c3ccccc3)cc12 [Example 437, CN(CCCNC(═O)c1ccc2sc(c(C)c2c1)-c3ccnc(N)n3)c4ccccc4]
13 | > 5 | Cc1c(-c2ccnc(N)n2)sc2ccc(C(=O)N3CCN(c4ccccc4Cl)CC3)cc12 [Example 569, Cc1c(sc2ccc(cc12)C(═O)N3CCN(CC3)c4ccccc4Cl)-c5ccnc(N)n5]
14 | > 5 | COc1ccc(N2CCN(C(=O)c3ccc4sc(-c5ccnc(N)n5)c(C)c4c3)CC2)cc1OC [Example 570, COc1ccc(cc1OC)N2CCN(CC2)C(═O)c3ccc4sc(c(C)c4c3)-c5ccnc(N)n5]
15 | < 5 | CCN(CCCCO)C(=O)c1ccc2sc(-c3ccnc(N)n3)c(C)c2c1 [Example 490, CCN(CCCCO)C(═O)c1ccc2sc(c(C)c2c1)-c3ccnc(N)n3]
16 | < 5 | CCN(CC)CCN(Cc1ccccc1)C(=O)c1ccc2sc(-c3ccnc(N)n3)c(C)c2c1 [Example 551, CCN(CC)CCN(Cc1ccccc1)C(═O)c2ccc3sc(c(C)c3c2)-c4ccnc(N)n4]
17 | > 5 | Cc1c(-c2ccnc(N)n2)sc2ccc(C(=O)N3CCN(c4ccc(Cl)c(Cl)c4)CC3)cc12 [Example 567, Cc1c(sc2ccc(cc12)C(═O)N3CCN(CC3)c4ccc(Cl)c(Cl)c4)-c5ccnc(N)n5]
18 | > 5 | Cc1c(-c2ccnc(N)n2)sc2ccc(C(=O)NC(C)C(C)C)cc12 (stereo not shown) [Example 349, CC(C)C(C)NC(═O)c1ccc2sc(c(C)c2c1)-c3ccnc(N)n3]
19 | < 5 | Cc1ccccc1CNC(=O)c1ccc2sc(-c3ccnc(N)n3)c(C)c2c1 [Example 379, Cc1ccccc1CNC(═O)c2ccc3sc(c(C)c3c2)-c4ccnc(N)n4]
20 | < 5 | Cc1ccc(C)c(CNC(=O)c2ccc3sc(-c4ccnc(N)n4)c(C)c3c2)c1 [Example 393, Cc1ccc(C)c(CNC(═O)c2ccc3sc(c(C)c3c2)-c4ccnc(N)n4)c1]
21 | < 5 | Cc1c(-c2ccnc(N)n2)sc2ccc(C(=O)N3CCC(NC(=O)OC(C)(C)C)C3)cc12 (stereo not shown) [Example 531, Cc1c(sc2ccc(cc12)C(═O)N3CCC(C3)NC(═O)OC(C)(C)C)-c4ccnc(N)n4]

Row | IC50 [µM] | Structure (SMILES)
22 | < 5 | Cc1c(-c2ccnc(N)n2)sc2ccc(C(=O)NCCCCO)cc12 [Example 354, Cc1c(sc2ccc(cc12)C(═O)NCCCCO)-c3ccnc(N)n3]
23 | < 5 | Cc1c(-c2ccnc(N)n2)sc2ccc(C(=O)NCCc3cccc(Cl)c3)cc12 [Example 429, Cc1c(sc2ccc(cc12)C(═O)NCCc3cccc(Cl)c3)-c4ccnc(N)n4]
24 | < 5 | Cc1c(-c2ccnc(N)n2)sc2ccc(C(=O)NCC#N)cc12 [Example 332, Cc1c(sc2ccc(cc12)C(═O)NCC#N)-c3ccnc(N)n3]
25 | < 5 | Cc1c(-c2ccnc(N)n2)sc2ccc(C(=O)N3CC(C)CC(C)C3)cc12 (stereo not shown) [Example 481, CC1CC(C)CN(C1)C(═O)c2ccc3sc(c(C)c3c2)-c4ccnc(N)n4]
26 | > 5 | Cc1c(-c2ccnc(N)n2)sc2ccc(C(=O)N3CCN(C(=O)OC(C)(C)C)C[C@H]3CO)cc12 [Example 561, Cc1c(sc2ccc(cc12)C(═O)N3CCN(C[C@H]3CO)C(═O)OC(C)(C)C)-c4ccnc(N)n4]
27 | < 5 | Cc1c(-c2ccnc(N)n2)sc2ccc(Nc3cccc(O)c3)cc12 [Example 52, 3-(2-(2-Aminopyrimidin-4-yl)-3-methylbenzo[b]thiophen-5-ylamino)phenol]
28 | < 5 | Cc1c(-c2ccnc(N)n2)sc2ccc(C(=O)N(C)C3CCCCC3)cc12 [Example 482, CN(C1CCCCC1)C(═O)c2ccc3sc(c(C)c3c2)-c4ccnc(N)n4]
29 | > 5 | Cc1c(-c2ccnc(N)n2)sc2ccc(C(=O)N3CCC(N(C)C(=O)OC(C)(C)C)C3)cc12 (stereo not shown) [Example 549, CN(C1CCN(C1)C(═O)c2ccc3sc(c(C)c3c2)-c4ccnc(N)n4)C(═O)OC(C)(C)C]
30 | > 5 | Cc1ccc(CNC(=O)c2ccc3sc(-c4ccnc(N)n4)c(C)c3c2)cc1C [Example 398, Cc1ccc(CNC(═O)c2ccc3sc(c(C)c3c2)-c4ccnc(N)n4)cc1C]
31 | > 5 | CCCCN(Cc1ccccc1)C(=O)c1ccc2sc(-c3ccnc(N)n3)c(C)c2c1 [Example 515, CCCCN(Cc1ccccc1)C(═O)c2ccc3sc(c(C)c3c2)-c4ccnc(N)n4]
32 | > 5 | Cc1c(-c2ccnc(N)n2)sc2ccc(C(=O)N3CCN(c4ccccc4F)CC3)cc12 [Example 525, Cc1c(sc2ccc(cc12)C(═O)N3CCN(CC3)c4ccccc4F)-c5ccnc(N)n5]
33 | > 5 | Cc1c(-c2ccnc(N)n2)sc2ccc(C(=O)N3CCN(CCN4CCOCC4)CC3)cc12 [Example 548, Cc1c(sc2ccc(cc12)C(═O)N3CCN(CCN4CCOCC4)CC3)-c5ccnc(N)n5]
34 | < 5 | Cc1c(-c2ccnc(N)n2)sc2ccc(C(=O)NCc3ccncc3)cc12 [Example 366, Cc1c(sc2ccc(cc12)C(═O)NCc3ccncc3)-c4ccnc(N)n4]
35 | < 5 | Cc1c(-c2ccnc(N)n2)sc2ccc(C(=O)NC3CONC3=O)cc12 (stereo not shown) [Example 360, Cc1c(sc2ccc(cc12)C(═O)NC3CONC3═O)-c4ccnc(N)n4]
36 | < 5 | Cc1c(-c2ccnc(N)n2)sc2ccc(C(=O)NCCN(C(C)C)C(C)C)cc12 [Example 416, CC(C)N(CCNC(═O)c1ccc2sc(c(C)c2c1)-c3ccnc(N)n3)C(C)C]
37 | < 5 | Cc1c(-c2ccnc(N)n2)sc2ccc(C(=O)N(CCCO)Cc3ccccn3)cc12 [Example 517, Cc1c(sc2ccc(cc12)C(═O)N(CCCO)Cc3ccccn3)-c4ccnc(N)n4]
38 | > 5 | Cc1c(-c2ccnc(N)n2)sc2ccc(C(=O)NCc3ccc(C(C)(C)C)cc3)cc12 [Example 436, Cc1c(sc2ccc(cc12)C(═O)NCc3ccc(cc3)C(C)(C)C)-c4ccnc(N)n4]
39 | < 5 | Cc1c(-c2ccnc(N)n2)sc2ccc(C(=O)NCCc3ccc(S(N)(=O)=O)cc3)cc12 [Example 454, Cc1c(sc2ccc(cc12)C(═O)NCCc3ccc(cc3)S(N)(═O)═O)-c4ccnc(N)n4]
40 | < 5 | COc1ccc(NC(=O)c2ccc3sc(-c4ccnc(N)n4)c(C)c3c2)cc1OC [Example 426, COc1ccc(NC(═O)c2ccc3sc(c(C)c3c2)-c4ccnc(N)n4)cc1OC]
41 | < 5 | CCCNC(=O)c1ccc2sc(-c3ccnc(N)n3)c(C)c2c1 [Example 335, CCCNC(═O)c1ccc2sc(c(C)c2c1)-c3ccnc(N)n3]
42 | > 5 | Cc1c(-c2ccnc(N)n2)sc2ccc(C(=O)N3CCC(Cc4ccccc4)CC3)cc12 [Example 520, Cc1c(sc2ccc(cc12)C(═O)N3CCC(CC3)Cc4ccccc4)-c5ccnc(N)n5]

Row | Structure (SMILES) | IC50 [µM]
43 | Cc1ccc(CCNC(=O)c2ccc3sc(-c4ccnc(N)n4)c(C)c3c2)cc1 [Example 392, Cc1ccc(CCNC(═O)c2ccc3sc(c(C)c3c2)-c4ccnc(N)n4)cc1] | > 5
44 | CCOC(=O)N1CCN(C(=O)c2ccc3sc(-c4ccnc(N)n4)c(C)c3c2)CC1 [Example 511, CCOC(═O)N1CCN(CC1)C(═O)c2ccc3sc(c(C)c3c2)-c4ccnc(N)n4] | > 5
45 | Cc1c(-c2ccnc(N)n2)sc2ccc(C(=O)NC3CCC(C)CC3)cc12 (stereo not shown) [Example 368, CC1CCC(CC1)NC(═O)c2ccc3sc(c(C)c3c2)-c4ccnc(N)n4] | > 5
46 | COC(=O)C1CCN(C(=O)c2ccc3sc(-c4ccnc(N)n4)c(C)c3c2)CC1 [Example 504, COC(═O)C1CCN(CC1)C(═O)c2ccc3sc(c(C)c3c2)-c4ccnc(N)n4] | > 5
47 | Cc1c(-c2ccnc(N)n2)sc2ccc(C(=O)N3CCN(C)CC3)cc12 [Example 474, CN1CCN(CC1)C(═O)c2ccc3sc(c(C)c3c2)-c4ccnc(N)n4] | < 5
48 | CC(=O)c1ccc(N2CCN(C(=O)c3ccc4sc(-c5ccnc(N)n5)c(C)c4c3)CC2)cc1 [Example 550, CC(═O)c1ccc(cc1)N2CCN(CC2)C(═O)c3ccc4sc(c(C)c4c3)-c5ccnc(N)n5] | > 5
49 | CCOC(=O)N1CCC(NC(=O)c2ccc3sc(-c4ccnc(N)n4)c(C)c3c2)CC1 [Example 442, CCOC(═O)N1CCC(CC1)NC(═O)c2ccc3sc(c(C)c3c2)-c4ccnc(N)n4] | < 5
